The text below walks through data of PubChem BioAssay (NCI).

Among the test systems are 786-0 renal; ACHN renal; DU-145 prostate; HCC-2998 colon; HCT-15 colon; MALME-3M melanoma; MOLT-4 leukemia; OVCAR-8 ovarian; SK-OV-3 ovarian; SNB-19 CNS.
What all share (test): NCI-60 cell line screen, 48 h

“And” between values parts separate entries of the source, which are not always exact repeats. Equal values may be shown once.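 Method: 48-hour compound exposure of cells in 96-well plates, five concentrations, linear interpolation of endpoints. The concentration for 50% growth inhibition is given as GI50. TGI marks complete inhibition of growth.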

`O=C(CN1CCN(c2ccc(Cl)cc2)CC1)N1CCN(c2nnc(-c3ccc(Cl)cc3)c(-c3ccc(Cl)cc3)n2)CC1`: the GI50 was 22 µM in the experiment with 786-0 renal; 31.5 µM in the experiment on ACHN renal; 80 µM in the experiment with DU-145 prostate; greater than 100 µM in the experiment with HCC-2998 colon; greater than 100 µM in the experiment with HCT-15 colon; 39.9 µM in the experiment on MALME-3M melanoma. For the same compound, the GI50 with MOLT-4 leukemia is 5.92 µM; in the experiment on OVCAR-8 ovarian, greater than 100 µM; with SK-OV-3 ovarian, 33.9 µM; in the experiment with SNB-19 CNS, 19.1 µM. The TGI in the experiment with 786-0 renal, in the experiment with ACHN renal, with DU-145 prostate, with HCC-2998 colon, in the experiment on HCT-15 colon and in the experiment with MALME-3M melanoma was greater than 100 µM each time. The TGI with MOLT-4 leukemia was greater than 100 µM; in the experiment on OVCAR-8 ovarian it was greater than 100 µM; in the experiment on SK-OV-3 ovarian, greater than 100 µM; in the experiment with SNB-19 CNS it was 63.5 µM.
Regarding `O=C([O][Hg][CH2]C1COC([CH2][Hg][O]C(=O)c2ccccc2)CO1)c1ccccc1` (stereo not given), the GI50 is 2.88 µM and 1.47 µM with 786-0 renal; 8.92 µM and 1.67 µM in the experiment with ACHN renal; 18.8 µM in the experiment on DU-145 prostate; 17.6 µM and 3.65 µM with HCC-2998 colon; 2.83 µM and 1.63 µM in the experiment with HCT-15 colon; 2.06 µM and 1.7 µM with MALME-3M melanoma. Also, the GI50 was 2.18 µM and 1.41 µM in the experiment with MOLT-4 leukemia; 10.7 µM and 1.92 µM with OVCAR-8 ovarian; 17.6 µM in the experiment with SK-OV-3 ovarian; 19.6 µM and 6.18 µM with SNB-19 CNS. The TGI in the experiment on 786-0 renal is 8.5 µM and 2.99 µM; with ACHN renal, 20.7 µM and 3.08 µM; in the experiment with DU-145 prostate it was 33 µM; in the experiment on HCC-2998 colon, 32.2 µM and 9.35 µM; in the experiment with HCT-15 colon, 5.67 µM and 3.15 µM; in the experiment with MALME-3M melanoma, 3.81 µM and 3.23 µM. Also, the TGI with MOLT-4 leukemia is 6.5 µM and 6.83 µM; in the experiment on OVCAR-8 ovarian it was 25.4 µM and 4.42 µM; in the experiment with SK-OV-3 ovarian, 31.4 µM; in the experiment with SNB-19 CNS it was 43.2 µM and 21.9 µM.
For the compound `CC/C=C\C/C=C\C[C@H](O)C/C=C1/C(=O)C=C[C@@H]1C/C=C\CCCC(=O)O`, the GI50 with 786-0 renal is 2.47 µM; with ACHN renal, 4.84 µM; with DU-145 prostate, 5.17 µM; in the experiment on HCC-2998 colon, 2.21 µM; with HCT-15 colon it was 3.47 µM; in the experiment with MALME-3M melanoma, 3.46 µM. Besides, the GI50 is 2.83 µM in the experiment with MOLT-4 leukemia, 3.56 µM with OVCAR-8 ovarian, 16 µM in the experiment on SK-OV-3 ovarian and 8.75 µM in the experiment with SNB-19 CNS. The TGI turned out to be 5.83 µM in the experiment with 786-0 renal; 18.5 µM in the experiment on ACHN renal; 19 µM in the experiment on DU-145 prostate; 4.28 µM with HCC-2998 colon; 15.6 µM in the experiment on HCT-15 colon; 15.6 µM in the experiment on MALME-3M melanoma. Also, the TGI with MOLT-4 leukemia came to 11.8 µM; in the experiment with OVCAR-8 ovarian it was 13.9 µM; in the experiment with SK-OV-3 ovarian, 34.7 µM; in the experiment on SNB-19 CNS it was 24.3 µM.
